Assay results published in PubChem BioAssay AID1259407 (Chemical Carcinogenesis Research Information System (CCRIS), 2018).
The source made the active and inactive calls. No rule for the calls is given here.

System: CCRIS mutagenicity, Ames/micronucleus/aberration tests
Experiment: CCRIS mutagenicity studies
[1] = Test System: AMES SALMONELLA TYPHIMURIUM, Strain/Indicator: TA98, Metabolic Activation: NONE, Method: PREINCUBATION
[2] = Test System: AMES SALMONELLA TYPHIMURIUM, Strain/Indicator: TA98, Metabolic Activation: RAT, LIVER, S-9, AROCLOR 1254, Method: PREINCUBATION
[3] = Test System: AMES SALMONELLA TYPHIMURIUM, Strain/Indicator: TA100, Metabolic Activation: NONE, Method: PREINCUBATION
[4] = Test System: AMES SALMONELLA TYPHIMURIUM, Strain/Indicator: TA100, Metabolic Activation: RAT, LIVER, S-9, AROCLOR 1254, Method: PREINCUBATION
[5] = Test System: AMES SALMONELLA TYPHIMURIUM, Strain/Indicator: TA1535, Metabolic Activation: NONE, Method: PREINCUBATION
[6] = Test System: AMES SALMONELLA TYPHIMURIUM, Strain/Indicator: TA97, Metabolic Activation: NONE, Method: PREINCUBATION

OC1C=C2c3ccc4ccccc4c3-c3cccc(c32)C1O (stereo not drawn)
mutagenic call (Test System: AMES SALMONELLA TYPHIMURIUM, Strain/Indicator: TA97A, Metabolic Activation: NONE, Method: PREINCUBATION): inactive; negative
mutagenic call (Test System: AMES SALMONELLA TYPHIMURIUM, Strain/Indicator: TA97A, Metabolic Activation: RAT, LIVER, S-9, AROCLOR 1254, Method: PREINCUBATION): active; positive
mutagenic call [1]: inactive; negative
mutagenic call [2]: active; positive
mutagenic call [3]: active; positive
mutagenic call [4]: active; positive

OC1C2OC2c2cccc3c2C1(O)c1ccccc1-3 (stereo not drawn)
mutagenic call (Test System: AMES SALMONELLA TYPHIMURIUM, Strain/Indicator: TM677, Metabolic Activation: NONE, Method: PREINCUBATION): inactive; negative
mutagenic call (Test System: AMES SALMONELLA TYPHIMURIUM, Strain/Indicator: TM677, Metabolic Activation: RAT, LIVER, POSTMITOCHONDRIAL SUPERNATANT, AROCLOR 1254, Method: PREINCUBATION): inactive; negative

CN1CSC(=S)N(C)C1
mutagenic call (End Point: In vivo micronucleus, Test System: Micronucleated polychromatic erythrocytes, Species: Mouse, Strain/Sex: NMRI / Males and females, Route: Oral): inactive; negative

CC(=O)OC(OC(C)=O)c1ccc([N+](=O)[O-])o1
mutagenic call (Test System: AMES SALMONELLA TYPHIMURIUM, Strain/Indicator: TA98(1,8-DNP6), Metabolic Activation: NONE, Method: STANDARD PLATE): active; positive
mutagenic call (Test System: AMES SALMONELLA TYPHIMURIUM, Strain/Indicator: TA98(1,8-DNP6), Metabolic Activation: RAT, LIVER, S-9, 3-METHYLCHOLANTHRENE, Method: STANDARD PLATE): active; positive
mutagenic call (Test System: AMES SALMONELLA TYPHIMURIUM, Strain/Indicator: TA98(NR), Metabolic Activation: NONE, Method: STANDARD PLATE): active; positive
mutagenic call (Test System: AMES SALMONELLA TYPHIMURIUM, Strain/Indicator: TA98(NR), Metabolic Activation: RAT, LIVER, S-9, 3-METHYLCHOLANTHRENE, Method: STANDARD PLATE): active; positive
mutagenic call (Test System: AMES SALMONELLA TYPHIMURIUM, Strain/Indicator: TA98, Metabolic Activation: NONE, Method: STANDARD PLATE): active; positive
mutagenic call (Test System: AMES SALMONELLA TYPHIMURIUM, Strain/Indicator: TA98, Metabolic Activation: RAT, LIVER, S-9, 3-METHYLCHOLANTHRENE, Method: STANDARD PLATE): active; positive
mutagenic call (Test System: E. COLI, Strain/Indicator: WP2 UVRA, Metabolic Activation: NONE, Method: SPOT): active; positive

Clc1ccc(Cl)c(Cl)c1Cl
mutagenic call (End Point: IN VITRO CHROMOSOMAL ABERRATIONS, Test System: CHO-LB CELLS, Metabolic Activation: NONE): inactive; negative
mutagenic call (End Point: IN VITRO CHROMOSOMAL ABERRATIONS, Test System: CHO-LB CELLS, Metabolic Activation: RAT, LIVER, S-9, AROCLOR 1254): inactive; negative
mutagenic call (Test System: AMES SALMONELLA TYPHIMURIUM, Strain/Indicator: TA98, Metabolic Activation: HAMSTER, LIVER, S-9, AROCLOR 1254, Method: PREINCUBATION): inactive; negative
mutagenic call [1]: inactive; negative
mutagenic call [2]: inactive; negative
mutagenic call (Test System: AMES SALMONELLA TYPHIMURIUM, Strain/Indicator: TA100, Metabolic Activation: HAMSTER, LIVER, S-9, AROCLOR 1254, Method: PREINCUBATION): inactive; negative
mutagenic call [3]: inactive; negative
mutagenic call [4]: inactive; negative
mutagenic call (Test System: AMES SALMONELLA TYPHIMURIUM, Strain/Indicator: TA1535, Metabolic Activation: HAMSTER, LIVER, S-9, AROCLOR 1254, Method: PREINCUBATION): inactive; negative
mutagenic call [5]: inactive; negative
mutagenic call (Test System: AMES SALMONELLA TYPHIMURIUM, Strain/Indicator: TA1535, Metabolic Activation: RAT, LIVER, S-9, AROCLOR 1254, Method: PREINCUBATION): inactive; negative
mutagenic call (Test System: AMES SALMONELLA TYPHIMURIUM, Strain/Indicator: TA1537, Metabolic Activation: HAMSTER, LIVER, S-9, AROCLOR 1254, Method: PREINCUBATION): inactive; negative
mutagenic call (Test System: AMES SALMONELLA TYPHIMURIUM, Strain/Indicator: TA1537, Metabolic Activation: NONE, Method: PREINCUBATION): inactive; negative
mutagenic call (Test System: AMES SALMONELLA TYPHIMURIUM, Strain/Indicator: TA1537, Metabolic Activation: RAT, LIVER, S-9, AROCLOR 1254, Method: PREINCUBATION): inactive; negative

CN(N=O)C(=O)Oc1cccc2ccccc12
mutagenic call (End Point: IN VITRO CHROMOSOMAL ABERRATIONS, Test System: CHINESE HAMSTER V79-E CELLS, Metabolic Activation: NONE): active; positive
mutagenic call (Test System: E. COLI WP2, Strain/Indicator: WP2, Metabolic Activation: NONE, Method: STANDARD PLATE): active; positive

Nc1ccc(Cc2ccc(N)c(Cc3ccc(N)cc3)c2)cc1
mutagenic call (Test System: AMES SALMONELLA TYPHIMURIUM, Strain/Indicator: TA97, Metabolic Activation: HAMSTER, LIVER, S-9, AROCLOR 1254 (10%), Method: PREINCUBATION): active; positive
mutagenic call [6]: inactive; negative
mutagenic call (Test System: AMES SALMONELLA TYPHIMURIUM, Strain/Indicator: TA97, Metabolic Activation: RAT, LIVER, S-9, AROCLOR 1254 (10%), Method: PREINCUBATION): active; positive
mutagenic call (Test System: AMES SALMONELLA TYPHIMURIUM, Strain/Indicator: TA98, Metabolic Activation: HAMSTER, LIVER, S-9, AROCLOR 1254 (10%), Method: PREINCUBATION): active; positive
mutagenic call [1]: inactive; negative
mutagenic call (Test System: AMES SALMONELLA TYPHIMURIUM, Strain/Indicator: TA98, Metabolic Activation: RAT, LIVER, S-9, AROCLOR 1254 (10%), Method: PREINCUBATION): active; positive
mutagenic call (Test System: AMES SALMONELLA TYPHIMURIUM, Strain/Indicator: TA100, Metabolic Activation: HAMSTER, LIVER, S-9, AROCLOR 1254 (10%), Method: PREINCUBATION): active; positive
mutagenic call [3]: inactive; negative
mutagenic call (Test System: AMES SALMONELLA TYPHIMURIUM, Strain/Indicator: TA100, Metabolic Activation: RAT, LIVER, S-9, AROCLOR 1254 (10%), Method: PREINCUBATION): active; positive
mutagenic call (Test System: AMES SALMONELLA TYPHIMURIUM, Strain/Indicator: TA1535, Metabolic Activation: HAMSTER, LIVER, S-9, AROCLOR 1254 (10%), Method: PREINCUBATION): inactive; negative
mutagenic call [5]: inactive; negative
mutagenic call (Test System: AMES SALMONELLA TYPHIMURIUM, Strain/Indicator: TA1535, Metabolic Activation: RAT, LIVER, S-9, AROCLOR 1254 (10%), Method: PREINCUBATION): inactive; negative
mutagenic call (Test System: AMES SALMONELLA TYPHIMURIUM, Strain/Indicator: TA1537, Metabolic Activation: HAMSTER, LIVER, S-9, AROCLOR 1254 (10%), Method: PREINCUBATION): active; positive
mutagenic call (Test System: AMES SALMONELLA TYPHIMURIUM, Strain/Indicator: TA1537, Metabolic Activation: RAT, LIVER, S-9, AROCLOR 1254 (10%), Method: PREINCUBATION): active; positive

Cc1c(C)c2c(c(C)c1OC(=O)CCC(=O)O)CC[C@@](C)(CCC[C@H](C)CCC[C@H](C)CCCC(C)C)O2
mutagenic call (Test System: AMES SALMONELLA TYPHIMURIUM, Strain/Indicator: TA97, Metabolic Activation: HAMSTER, LIVER, S-9, AROCLOR 1254 (10 OR 30%), Method: PREINCUBATION): inactive; negative
mutagenic call [6]: inactive; negative
mutagenic call (Test System: AMES SALMONELLA TYPHIMURIUM, Strain/Indicator: TA97, Metabolic Activation: RAT, LIVER, S-9, AROCLOR 1254 (10 OR 30%), Method: PREINCUBATION): inactive; negative
mutagenic call (Test System: AMES SALMONELLA TYPHIMURIUM, Strain/Indicator: TA98, Metabolic Activation: HAMSTER, LIVER, S-9, AROCLOR 1254 (10 OR 30%), Method: PREINCUBATION): inactive; negative
mutagenic call [1]: inactive; negative
mutagenic call (Test System: AMES SALMONELLA TYPHIMURIUM, Strain/Indicator: TA98, Metabolic Activation: RAT, LIVER, S-9, AROCLOR 1254 (10 OR 30%), Method: PREINCUBATION): inactive; negative
mutagenic call (Test System: AMES SALMONELLA TYPHIMURIUM, Strain/Indicator: TA100, Metabolic Activation: HAMSTER, LIVER, S-9, AROCLOR 1254 (10 OR 30%), Method: PREINCUBATION): inactive; negative
mutagenic call [3]: inactive; negative
mutagenic call (Test System: AMES SALMONELLA TYPHIMURIUM, Strain/Indicator: TA100, Metabolic Activation: RAT, LIVER, S-9, AROCLOR 1254 (10 OR 30%), Method: PREINCUBATION): inactive; negative
mutagenic call (Test System: AMES SALMONELLA TYPHIMURIUM, Strain/Indicator: TA1535, Metabolic Activation: HAMSTER, LIVER, S-9, AROCLOR 1254 (10 OR 30%), Method: PREINCUBATION): inactive; negative
mutagenic call [5]: inactive; negative
mutagenic call (Test System: AMES SALMONELLA TYPHIMURIUM, Strain/Indicator: TA1535, Metabolic Activation: RAT, LIVER, S-9, AROCLOR 1254 (10 OR 30%), Method: PREINCUBATION): inactive; negative
